Experiment: solvent given as SMILES

CCCCC(C)CCC (stereo not drawn)
Conditions | solvation free energy, 298 K [kcal/mol]
in O | 3.57

O=C(O)c1cccc(C(=O)O)c1
Conditions | solvation free energy, 298 K [kcal/mol]
in CC(C)O | -13.8
in CCC(C)O | -13.3
in CCCCCCO | -13.2
in CCCCO | -13.5
in CCCO | -13.6
in CCCOC(C)=O | -12.5
in CN1CCCC1=O | -15.5
in CO | -14.1
in O | -11.3

O=c1cc(-c2ccc(O)c(O)c2)oc2cc(O)cc(O)c12
Conditions | solvation free energy, 298 K [kcal/mol]
in CC(C)O | -25.4
in CCCCO | -25.2
in CCCO | -25.5
in CCO | -25.5

FC(Cl)(Cl)C(F)(Cl)Cl
Conditions | solvation free energy, 298 K [kcal/mol]
in C1CCOC1 | -4.82
in C1COCCO1 | -4.46
in CC(C)=O | -4.45
in CCCCCC | -4.43
in CCCCCCC | -3.98
in CCCO | -3.64
in CCOC(C)=O | -4.62
in COC(C)(C)C | -4.68
in O | 0.87

CCCCCCCCCCCCCC(=O)OCC
Conditions | solvation free energy, 298 K [kcal/mol]
in O | -7.32

OC1CCCC1
Conditions | solvation free energy, 298 K [kcal/mol]
in C1COCCO1 | -6.33
in CC(C)=O | -6.28
in O | -5.5

CCOC(=O)c1ccccc1
Conditions | solvation free energy, 298 K [kcal/mol]
in O | -3.74

O=C(O)c1ccc(CCl)cc1
Conditions | solvation free energy, 298 K [kcal/mol]
in C=CCCCCCCCCCCCCCC | -8.7
in O | -9.22

C=C1C2CCC(C2)C1(C)C (stereo not drawn)
Conditions | solvation free energy, 298 K [kcal/mol]
in O | 0.61

FS(F)(F)(F)(F)F
Conditions | solvation free energy, 298 K [kcal/mol]
in Brc1ccccc1 | 0.67
in C1CCOC1 | 0.05
in C1COCCO1 | 0.52
in CC1COC(=O)O1 | 0.98
in CC#N | 0.25
in CC(=O)N(C)C | 0.76
in CC(C)(C)O | -0.11
in CC(C)=O | -0.07
in CC(C)CC(C)(C)C | -0.47
in CC(C)CO | 0.1
in CCC(C)O | 0.26
in CCCCCC | -0.41
in CCCCCCC | -0.32
in CCCCCCCC | -0.23
in CCCCCCCCC | -0.16
in CCCCCCCCCC | -0.06
in CCCCCCCCCCC | 0
in CCCCCCCCCCCC | 0.06
in CCCCCCCCCCCCC | 0.12
in CCCCCCCCCCCCCC | 0.15
in CCCCCCCCCCCCCCC | 0.18
in CCCCCCCCCCCCCCCC | 0.22
in CCCCCCCCCCCO | 0.49
in CCCCCCCCCCO | 0.47
in CCCCCCCCCO | 0.43
in CCCCCCCCO | 0.41
in CCCCCCCO | 0.37
in CCCCCCO | 0.34
in CCCCCO | 0.29
in CCCCO | 0.26
in CCCO | 0.18
in CCO | 0.14
in CN(C)C=O | 0.83
in CN(C)P(=O)(N(C)C)N(C)C | 0.66
in CNC=O | 1.02
in CO | 0.26
in CS(C)=O | -0.05
in Cc1ccc(C)cc1 | 0.19
in Cc1cccc(C)c1 | 0.19
in Cc1ccccc1C | 0.27
in ClC(Cl)(Cl)Cl | -0.03
in Clc1ccccc1 | 0.35
in N#Cc1ccccc1 | 0.71
in O | 3.04
in O=C1CCCC1 | 0.49
in O=C1CCCCC1 | 0.52

NCCc1ccccc1
Conditions | solvation free energy, 298 K [kcal/mol]
in C=CCCCCCCC=C | -7.41
in O | -6.56

COc1ccc(O)cc1
Conditions | solvation free energy, 298 K [kcal/mol]
in CCCCCC | -7.15

CC(C)CC(=O)CC(C)C
Conditions | solvation free energy, 298 K [kcal/mol]
in CCCCCCC | -6.13

CCCOCCC
Conditions | solvation free energy, 298 K [kcal/mol]
in C=CCCCCCCCCCCCCCC | -4
in CC(C)(C)O | -4.13
in CC(C)CO | -4.17
in CC(C)O | -4.02
in CCC(C)=O | -4.37
in CCC(C)O | -4.15
in CCCCCCCCCCCCCCCC | -4.02
in CCCCCCCCO | -4.05
in CCCCCCO | -4.12
in CCCCCl | -4.68
in CCCCO | -4.13
in CN(C)C=O | -3.62
in CO | -3.94
in ClC(Cl)(Cl)Cl | -4.83
in ClCCl | -5.02
in O | -1.23
in [2H]O[2H] | -1.37

Cc1ccc(C)cc1
Conditions | solvation free energy, 298 K [kcal/mol]
in CC#N | -5.16
in CC(C)CC(C)(C)C | -5.39
in CC(C)CO | -4.94
in CC(O)CO | -4.14
in CCCCCCC | -5.45
in CCCCCCCCCCCCCCCC | -5.27
in CCCCCCCCO | -5.17
in CCCCOC(C)=O | -6.1
in CCO | -5.09
in CNC=O | -4.8
in COCCO | -5.06
in ClC(Cl)(Cl)Cl | -5.73
in ClCCCl | -5.96
in NC=O | -3.27
in NCCO | -3.84
in O | -0.75
in O=CN1CCOCC1 | -4.98
in OCCO | -3.4
in OCCOCCO | -4.23
in OCCOCCOCCO | -4.37
